Bounds are passed on as bounds.

The IC50 is the concentration at which inhibition is half-maximal.

Experiment [1] has as its system Du-145 prostate tumor cells. Description: MTT-microculture tetrazolium cell viability assay / induction of apoptosis in Du-145. The note with it: for IC50: Homo sapiens, Du-145 prostate tumor cells, MTT, 72 hours incubation, drug concentration giving 50% inhibition of growth, read-out: IC50 (μM), Effects of Diarylheptanoids on Inducing Apoptosis in DU-145 Cancer Cell Line; for activity in bioassay: inducing apoptosis in Du-145 cancer cell line (in words): bioassay-directed fractionation of Alpinia officinarum. Type of experiment: cell-based. On the procedure:
The rhizomes of Alpinia officinarum were purchased from Nuherbs Co. (Oakland, Calif.). Du-145 prostate tumor cells were obtained from the American Type Culture Collection (ATCC). Cells were maintained at 37° C. in an atmosphere of 5% CO2 and grown in Roswell Park Memorial Institute (RPMI) media 1640 (GIBCO/BRL) with 10% fetal bovine serum and with 5% penicillin and streptomycin.
The powdered roots of Alpinia officinarum were extracted with methanol and concentrated under vacuum using rotary evaporation. The dried residue was then partitioned with hexanes, ethyl acetate and 1-butanol successively. The three extracts were subjected to bioassays.
The dried ethyl acetate extract was then chromatographed on a normal phase silica gel column (2.5×30 cm) to perform bioassay-directed fractionation. The extract was first dissolved in methanol and loaded onto the column packing material. The prepared extract was then placed on top of the column and elution was performed using a solvent mixture of chloroform/methanol with an increasing amount of methanol (30:1, 20:1, 10:1, 5:1, 0:100; each 1000 mL). Successive fractions were collected and tested for biological activity. […] This fraction was then rechromatographed on a semipreparative Zorbax Rx-C18 reversed phase HPLC column (9.4 mm×240 mm, 5 μm) purchased from MacMod Analytical (Chadds Ford, Pa.). Compounds were eluted by an isocratic solvent system: 55% A, water with 0.05% formic acid (FA); 45% B, ACN (v/v) at a flow rate of 4 mL/min. The wavelength monitored was 205 nm. Successive fractions (1-3) were collected and sent for biological testing again.
Cellular growth in the presence or absence of experimental agents was determined using the modified method as previously described MTT-microculture tetrazolium assay (World Health Organization (ED.), Medicinal Plants in China, WHO Regional Publications, 1989, 21). Briefly, rapidly growing cells were harvested, counted, and inoculated at the appropriate concentrations (100 μL volume) into 96-well micro-titer plates using a multichannel pipet. After 24 hours, AO-1 to AO-5 were applied in different concentrations to triplicate culture wells, and cultures were incubated for 72 hours at 37° C. MTT ( Sigma, St. Louis, Mo.) was prepared at 2 mg/ml in Phosphate buffered saline (PBS) and 50 μL were added to microculture wells. After 4 hour incubation at 37° C., […] were removed from each well, and 150 μL of 100% DMSO were added to solubilize the MTT-formazan product. After thorough mixing with a mechanical plate mixer, absorbence was measured at 570 nm using a Dynatech microplate reader. […] This assay is based on the reduction of MTT tetrazolium salt to a formazan product by the metabolic activity of live cells and which was measured in a multiwell scanning spectrophotometer. Cell line growth and growth inhibition were expressed in terms of mean absorbance units and following the substraction of mean background absorbance.

Experiment [2] can be described thus: Radical-scavenging activity by DPPH. The note with it: for IC50: DPPH 63.4 μM in methanol, absorbance at 515 nm, steady state, read-out: IC50 (μM) of Diarylheptanoids in Scavenging DPPH Free Radicals; for free radical scavenging, DPPH data (in words): DPPH assay. The source says:
In this example, the 2,2-diphenyl-1-picrylhydrazyl (DPPH) method was used to explore the capacity of five isolated compounds of the invention to act as free radical scavengers. The DPPH assay has been extensively used to test the free radical scavenging ability of various chemicals (Brand-williams, W. et al., Wiss. Technol. 1995, 28, 25-30; Dinis, T. C. et al., Arch. Biochem. Biophys. 1994, 315, 161-169.)
This method was adapted from that of Brand-Williams, et al. (Brand-williams, W.; Cuvelier, M. E.; Berset, C. Lebensm. Wiss. Technol. 1995, 28, 25-30.). At least seven different concentrations were prepared for each purified compound. 25 μl pure compound solution and 975 μL DPPH solution (63.4 μM) were mixed together and left in the dark for 30 min. Each sample was triplicated and the values were averaged. The absorbance of the samples was measured at 515 nm against methanol solution without DPPH as the blank reference. The absorbance was measured every 30 min until the reaction reached a plateau. The reaction kinetics were then plotted using the above data and the percentage of DPPH remaining at the steady state was obtained. IC50 values were determined by extrapolation from linear regression analysis.
DPPH, 2,2-Diphenyl-1-picrylhydrazyl (DPPH.), is a stable radical in methanol solution. In its radical form, DPPH. absorbs at 515 nm, but the absorption ceases upon reduction by an antioxidant (AH) or a radical species (R.) (Brand-williams, W.; Cuvelier, M. E.; Berset, C. Lebensm. Wiss. Technol. 1995, 28, 25-30.). The concentration of tested chemicals needed to decrease the initial DPPH. concentration by 50% (IC50) is a parameter widely used to measure the antioxidant potential (Kanner, J.; Frankel, E.; German, B.; Kinsella, J. e. J. Agric. Food Chem. 1994, 42, 64-69, Vinson, J. A.; Dabbagh, Y. A.; Serry, M. M. J. Agric. Food Chem. 1995a, 43,2800-2802.). The lower the IC50, the higher the free radical scavenging power.

For `COc1cc(CCC(O)CC(=O)CCc2ccccc2)ccc1O` (stereo not shown) [AO-1, 5-Hydroxy-7-(4″-hydroxy-3″methoxyphenyl)-1-phenyl-3-heptanone], in experiment [1], the IC50 amounted to 100 µM and the “activity in bioassay: inducing apoptosis in Du-145 cancer cell line (in words)” value (“activity in bioassay: inducing apoptosis” for short) was “biological activity to some level”. In experiment [2], the IC50 worked out at 11.4 µM and the “free radical scavenging, DPPH data (in words)” value is on record as “very good free radical scavengers”.
In the case of `COc1cc(CCC(CC(=O)CCc2ccccc2)OC)ccc1O` (stereo not shown) [AO-2, 5-methoxy-7-(4″-hydroxy-3″methoxyphenyl)-1-phenyl-3-heptanone], in experiment [1], the IC50 is 88 µM and the “activity in bioassay: inducing apoptosis” value is on record as “some activity”. In addition, in experiment [2], the IC50 stood at 12.7 µM and the “free radical scavenging, DPPH data (in words)” value is given as “very good free radical scavengers”.
As for `O=C(/C=C/CCc1ccc(O)cc1)CCc1ccccc1` [AO-3, 7-(4″-hydroxyphenyl)-1-phenyl-hept-4-en-3-one], in experiment [1], the IC50 stood at 20 µM and the “activity in bioassay: inducing apoptosis” value is “some activity”. The IC50 in experiment [2] was over 1000 µM.
In the case of `O=C(/C=C/CCc1ccccc1)CCc1ccccc1` [AO-5, 1,7-diphenylhept-4-en-3-one], the IC50 in experiment [1] was 32 µM; in experiment [2] it was over 5000 µM.

These data come from patent publication US20050215635A1, “Diarylheptanoid compounds and uses thereof” (priority 2004, published 2005).
